Data published in publication PMC9144276, “In Vitro and In Silico Evaluation of Cholinesterase Inhibition by Alkaloids Obtained from Branches of Abuta panurensis Eichler” (Molecules, 2022).
Read-outs that look alike come from different tables or passages of the source.

Target: T1, acetylcholinesterase enzyme from an electric ray Tetronarce californica (Tetronarce californica, UniProt P04058)
T1 construct: purchased Sigma-Aldrich
Assay: Acetylcholinesterase inhibition assay (Ellman method, 96-well microplates)
Assay type: biochemical
Conditions: for inhibition percentage toward the AChE enzyme: concentration not given
Description: An acetylcholinesterase enzyme from an electric ray Tetronarce californica (Sigma-Aldrich, St. Louis, MO, USA) was used for the experiments. The in vitro AChE inhibition assay was performed in 96-well microplates according to the methodology proposed by Ellman et al. and Senol et al. with some modifications. The alkaloid fraction and alkaloids were tested at concentrations of 2.8; 5.6; 11.2; 22.5; 45.0 and 90.0 µg/mL. Initially, 20 µL of each sample from the stock solution (1 mg/mL) were added and serial dilutions were performed. Then, 150 µL of a sodium phosphate buffer pH = 8 ([…]), 20 µL of 5,5’-dithio-bis(2- nitrobenzoic)acid (DTNB, 0.0025 M), and 20 µL of the acetylcholinesterase enzyme (1 U/mL) were added subsequently to each well at 25 °C and left for 15 min. The reaction was initiated by the addition of 10 µL of […] (AChI) (0.1 M). Neostigmine (0.28–9.0 μg/mL) was used as a positive control.
A thiocholine formed by the enzymatic hydrolysis of the AChI, reacts with the DTNB giving rise to a yellow 5-mercapto-2-nitrobenzoate anion. Concentration of the latter in each well was measured as absorbance at 405 nm by using a 96-well microplate reader ELx800^TM (Bio Tek Instruments, Inc., Winooski, VT, USA). The transformation was monitored for 30 min at 5-min intervals. The inhibition curve was plotted as the inhibition percent vs. concentration. All assays were performed in triplicate. Statistical analysis was performed with GraphPad Prism 7.0® software.

[1] = TcAChE, Ellman, 25 °C, pH 8, triplicate, read-out: IC50 for the acetylcholinesterase (AChE) inhibition assay

T1 sequence (P04058 22-586): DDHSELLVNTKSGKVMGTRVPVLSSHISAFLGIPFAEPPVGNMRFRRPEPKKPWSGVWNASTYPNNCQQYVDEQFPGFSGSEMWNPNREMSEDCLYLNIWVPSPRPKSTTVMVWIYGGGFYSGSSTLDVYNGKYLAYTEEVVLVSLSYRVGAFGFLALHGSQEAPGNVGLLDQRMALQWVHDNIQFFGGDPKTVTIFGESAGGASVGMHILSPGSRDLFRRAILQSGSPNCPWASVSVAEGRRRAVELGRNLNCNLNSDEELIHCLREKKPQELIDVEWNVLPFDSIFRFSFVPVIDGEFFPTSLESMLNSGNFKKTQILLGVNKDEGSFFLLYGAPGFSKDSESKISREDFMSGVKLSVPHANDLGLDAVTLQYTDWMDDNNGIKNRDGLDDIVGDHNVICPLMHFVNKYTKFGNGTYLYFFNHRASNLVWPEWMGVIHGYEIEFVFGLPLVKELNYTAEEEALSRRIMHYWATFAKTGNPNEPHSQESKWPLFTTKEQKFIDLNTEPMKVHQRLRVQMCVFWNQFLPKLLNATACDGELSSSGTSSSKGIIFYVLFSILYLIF

SMILES	IC50 [1]	inhibition percentage toward the AChE enzyme (TcAChE)	IC50
COc1cc2c(cc1O)C(Cc1ccc(O)c(Oc3cc4c(cc3OC)CCNC4Cc3ccc(O)cc3)c1)NCC2 (single isomer, unassigned) [lindoldhamine isomer 1, Lindoldhamine isomer]	39.38 ± 0.08 µM	above 70%	
CN(CCCCNC(=O)/C=C/c1ccccc1)CCCNC(=O)/C=C/c1ccccc1 [5-N-methylmaytenine 4, 5-N-methylmaytenine]		above 70%	19.55 ± 0.09 µM
CN(C)C(=O)Oc1cccc([N+](C)(C)C)c1 [neostigmine, reference compound]	3.72 ± 0.03 µM	above 70%	
COc1cc2c(cc1OC)-c1cc3ccc(OC)c(OC)c3c[n+]1CC2 [palmatine 3, palmatine]	35.25 ± 0.04 µM	above 70%	
COc1cc2c3c(c1OC)C1(C=CC(=O)C=C1)CC3NCC2 (stereo not shown) [stepharine 2, stepharine]	61.24 ± 0.03 µM	above 70%	
